Assays:
[1] = system: K562 cancer cell line; assay: PBMC cytotoxicity assay against K562 target cells; format: cell-based; details: 1 μM; control medium; FIG. 2
Protocol: (§1) The TLR7 and NOD2 conjugated compounds of the invention were tested for their ability to activate the cytotoxic activity of peripheral blood mononuclear cells (PBMCs) towards cancer cell lines. The main effector fraction of PBMCs in this assay are natural killer (NK) cells, which play an essential role in the innate immune system through their direct cytotoxic activity against aberrant cells, especially tumour cells and virally infected cells. The flow cytometry-based method described hereafter measures the PBMC cytotoxic activity against target cancer cell lines by co-incubating PBMCs and cancer cells, which were pre-labelled by carboxyfluorescein succinimidyl ester (CFSE) to distinguish them from effector cells. Successful activation of effector cells by the tested compounds leads to higher degree of cell death in the target cell population.
(§2) Chronic myelogenous leukaemia K562 and chronic B cell leukaemia MEC-1 cell lines were used as target cells in the assay. Both cell lines were pre-cultured for at least 10 days before the assay was performed. Immediately prior to the addition of target cells to PBMCs, target cells were stained with CFSE at 2 μM for 15 minutes at 37° C. in the dark. Cells were then washed with medium and resuspended at 200.000 cells/mL.
(§3) PBMCs were isolated from whole blood by centrifugation with the Ficoll-Paque density gradient solution. After centrifugation, PBMCs were washed twice with PBS and resuspended in medium at 4.000.000 cells/mL. To perform the assay, PBMCs were seeded on 96 well microtiter plates at 400.000 cells per well and cultured in duplicates at 37° C. for 20 h in the presence of the compounds.
(§4) The compounds were prepared as follows: First, stock solutions of the conjugated compounds were prepared in DMSO at a 1 mM concentration. […]
(§5) After incubating the PBMCs in the presence of compounds, 10.000 CFSE stained target cells were added to each well for a final 40:1 ratio of effector cells versus target cells. After 4 h of co-incubation, cells were stained with the SYTOXTM Blue (Invitrogen) nucleic acid stain and analysed with flow cytometry. […]

[2] = system: MEC-1 cancer cell line; assay: PBMC cytotoxicity assay against MEC-1 target cells; format: cell-based; details: 1 μM; control medium; FIG. 1
Protocol: as §1, §2, §3, §4, §5

[3] = system: CD8 positive T-lymphocytes; assay: Antigen presentation of BMDCs to CD8+ T-lymphocytes; format: cell-based, mouse; details: for dose dependence of BMDC antigen presentation to CD8 positive T-lymphocytes: 1 nM to 1 μM, FIG. 6; for ability to promote BMDC antigen presentation to CD8 positive T-lymphocytes (ratio of CD25 positive T-lymphocytes with low CFSE fluorescence): 100 nM, ovalbumin, FIG. 4
Protocol: (§6) The effect of the conjugated compounds of the invention on antigen presentation of mouse bone marrow derived dendritic cells (BMDCs) to T-lymphocytes was examined.
(§7) BMDCs were obtained by harvesting bone marrow from mouse hind legs. The harvested cells were then cultured for 10 days in the presence of granulocyte-macrophage colony-stimulating factor
(§8) (GM-CSF) to ensure differentiation into dendritic cells. BMDCs were seeded on 96 well microtiter plates at 10.000 cells per well and stimulated in duplicates with conjugated compounds and ovalbumin (50 μg/mL) at 37° C. for 20 h. After this period, the supernatants were removed and either CD4+ T-Iymphocytes or CD8+ T-Iymphocytes were added.
(§9) The compounds were prepared as follows: First, stock solutions of the conjugated compounds were prepared in DMSO at a 1 mM concentration. The working dilutions of the conjugated compounds in medium were then added directly to BMDCs to ensure final concentrations ranging from 1 nM to 1 μM.
(§10) CD4+ and CD8+ T-lymphocytes were obtained from single-cell suspensions of spleens from OT-II and OT-I transgenic mice, respectively. These express a T-cell receptor that pairs with the CD4 or CD8 co-receptors and is specific for the ovalbumin antigen. After harvesting the spleen, CD4+ or CD8+ cell fractions were enriched with MACS separation technology (Miltenyi Biotec CD4+ T Cell Isolation Kit or CD8+ T Cell Isolation Kit, respectively). T-lymphocytes were then stained with CFSE and added to BMDCs at 50.000 cells per well.
(§11) After co-culturing the BMDCs and T-lymphocytes for 72 hours at 37° C., T-lymphocyte activation was assessed with flow cytometry by measuring the expression of CD25, characteristic for activated T-lymphocytes. Concurrently, the intensity of CFSE fluorescence was measured to evaluate T-lymphocyte proliferation. […] SG48, SG144 and RH32 were the tested conjugated compounds of the invention. Medium was used as a negative control. LPS (1 μg/mL) was used as the positive control. Intermediary compound SG8 was employed as a known NOD2 agonist of the desmuramylpeptide type (Gobec et al. 2018). Intermediary compound SG43 was employed as a known TLR7 agonist of the purine type (Akinbobuyi et al. 2016). The combination of SG8 and SG43 was employed to compare the activity of conjugated compounds against an unconjugated mixture of NOD2 and TLR7 agonists.

[4] = system: CD4 positive T-lymphocytes; assay: Antigen presentation of BMDCs to CD4+ T-lymphocytes; format: cell-based, mouse; details: for dose dependence of BMDC antigen presentation to CD4 positive T-lymphocytes: 1 nM to 1 μM, FIG. 5; for ability to promote BMDC antigen presentation to CD4 positive T-lymphocytes (ratio of CD25 positive T-lymphocytes with low CFSE fluorescence): 100 nM, ovalbumin, FIG. 3
Protocol: as §6, §7, §8, §9, §10, §11

| SMILES | ability to activate the cytotoxic activity of PBMCs against the K562 cancer cell line (ratio against the control) [1] | ability to activate the cytotoxic activity of PBMCs against the MEC-1 cancer cell line (ratio against the control) [2] | dose dependence of BMDC antigen presentation to CD8 positive T-lymphocytes [3] | ability to promote BMDC antigen presentation to CD8 positive T-lymphocytes (ratio of CD25 positive T-lymphocytes with low CFSE fluorescence) [3] | dose dependence of BMDC antigen presentation to CD4 positive T-lymphocytes [4] | ability to promote BMDC antigen presentation to CD4 positive T-lymphocytes (ratio of CD25 positive T-lymphocytes with low CFSE fluorescence) [4] |
| --- | --- | --- | --- | --- | --- | --- |
| CCCCOc1nc(N)c2nc(O)n(Cc3ccc(C(=O)NCCCCCC(=O)Oc4ccc(/C=C/C(=O)NCC(=O)N[C@H](C(=O)N[C@H](CCC(=O)OCC)C(=O)OCC)C(C)C)cc4OC)cc3)c2n1 [SG48, Diethyl ((E)-3-(4-((6-(4-((6-amino-2-butoxy-8-hydroxy-9H-purin-9-yl)methyl)benzamido)hexanoyl)-oxy)-3-methoxyphenyl)acryloyl)glycyl-L-yalyl-D-glutamate] | activate the cytotoxic activity of PBMCs | activate the cytotoxic activity of PBMCs | dose-dependent | promote BMDC antigen presentation | dose-dependent | promote BMDC antigen presentation |
| CCCCOc1nc(N)c2nc(O)n(Cc3ccc(C(=O)NCCOCCOCCNC(=O)CC[C@@H](NC(=O)[C@@H](NC(=O)CNC(=O)/C=C/c4ccc(O)c(OC)c4)C(C)C)C(=O)OCC)cc3)c2n1 [RH32] | activate the cytotoxic activity of PBMCs | activate the cytotoxic activity of PBMCs |  | promote BMDC antigen presentation |  | promote BMDC antigen presentation |
| CCCCOc1nc(N)c2nc(O)n(Cc3ccc(C(=O)NCCOCCNC(=O)CC[C@@H](NC(=O)[C@@H](NC(=O)CNC(=O)/C=C/c4ccc(O)c(OC)c4)C(C)C)C(=O)OCC)cc3)c2n1 [SG144, Ethyl N5-(2-(2-(4-((6-amino-2-butoxy-8-hydroxy-9H-purin-9-yl)methyl)benzamido)ethoxy)ethyl)-N2-((E)-3-(4-hydroxy-3-methoxyphenyl)acryloyl)glycyl-L-yalyl-D-glutaminate] | activate the cytotoxic activity of PBMCs | activate the cytotoxic activity of PBMCs | dose-dependent | promote BMDC antigen presentation | dose-dependent | promote BMDC antigen presentation |

Reference: US20230382886A1, “CONJUGATED TLR7 AND NOD2 AGONISTS” (UNIVERZA V LJUBLJANI, priority 2020, published 2023)
